{"source": "paper PMC9530963", "about": "“A cathelicidin antimicrobial peptide from Hydrophis cyanocinctus inhibits Zika virus infection by downregulating expression of a viral entry factor” (The Journal of Biological Chemistry, 2022)", "key": {"AXL [1]": {"system": "AXL", "assay": "AXL level in U251 cells (Western blot, immunofluorescence)", "assay_type": "cell-based, Homo sapiens", "conditions": "1.25, 2.5, and 5 μM, 24 h, with and without ZIKV challenge", "experimental": "Figure 5 Hc-CATH downregulates AXL in U251 cell.A, schematic diagram of B and C. B, U251 cells were seeded in 24-well plates (5 × 10^4 cells/well) and cultured in DMEM containing 2% FBS. Hc-CATH (1.25, 2.5, and 5 μM) or same volume of PBS (peptide solvent) was added to cells and incubated at 37 °C for 24 h. The level of AXL was tested by Western blot. C, U251 cells were seeded in 8-well cover slip chambers (5 × 10^4 cells/well) and cultured in DMEM containing 2% FBS. Hc-CATH (1.25, 2.5, and 5 μM) or PBS was added to cells and incubated at 37 °C for 24 h. The level of AXL was tested by immunofluorescence staining. The scale bar represents 50 μm. D, schematic diagram of E–G. E–G, U251 cells were seeded in 24-well plates (5 × 10^4 cells/well) and cultured in DMEM containing 2% FBS. Hc-CATH (1.25, 2.5, and 5 μM) or PBS was added to cells and incubated at 37 °C for 2 h. Cells were washed with PBS and incubated with ZIKV (MOI = 1). After incubation at 37 °C for 2 h, cells were washed with PBS and cultured in DMEM containing 2% FBS.\nThe effect of Hc-CATH on AXL was further confirmed in A549 and U251 cells. A549 or U251 cells were incubated with Hc-CATH (1.25, 2.5, and 5 μM) or PBS at 37 °C for 24 h, and the level of AXL was detected by WB and IF, respectively. Upon ZIKV challenge, A549 or U251 cells were incubated with Hc-CATH (1.25, 2.5, and 5 μM) or PBS at 37 °C for 2 h. […]"}, "AXL [2]": {"system": "AXL", "assay": "AXL level in Vero cells (Western blot, immunofluorescence)", "assay_type": "cell-based, Chlorocebus aethiops", "experimental": "(§1) Figure 3 Hc-CATH downregulates AXL in Vero cell.A, schematic diagram of B and C. B, Vero cells were seeded in 24-well plates (5 × 10^4 cells/well) and cultured in DMEM containing 2% FBS. Hc-CATH (1.25, 2.5, and 5 μM), AC5 (2.5 μM), LL-37 (2.5 μM), or same volume of PBS (peptide solvent) was added to cells. After culture at 37 °C for 6, 12, and 24 h, the levels of ZIKV entry factors, including AXL, TYRO3, and TIM-1, were tested by Western blot, respectively. C, Vero cells were seeded in 8-well cover slip chambers (5 × 10^4 cells/well) and cultured in DMEM containing 2% FBS. Hc-CATH (1.25, 2.5, and 5 μM), AC5 (2.5 μM), LL-37 (2.5 μM), or same volume of PBS (peptide solvent) was added to cells. After culture at 37 °C for 24 h, the level of AXL was tested by immunofluorescence staining. The scale bar represents 50 μm. D, schematic diagram of E. E, Vero cells were seeded in 24-well plates (5 × 10^4 cells/well) and cultured in DMEM containing 2% FBS. Hc-CATH (1.25, 2.5, and 5 μM), AC5 (2.5 μM), LL-37 (2.5 μM), or same volume of PBS (peptide solvent) was added to cells and incubated at 37 °C for 2 h. […] Ratio of AXL to β-actin was analyzed by ImageJ.\n(§2) Vero cells were incubated with Hc-CATH (1.25, 2.5, and 5 μM), AC5 (2.5 μM), LL-37 (2.5 μM), or PBS (solvent of peptide). […] The levels of ZIKV entry factors, including AXL, TYRO3, and TIM-1, were detected by WB analysis. […]"}, "ZIKV": {"system": "ZIKV", "assay": "Prophylactic efficacy against ZIKV infection in mice", "assay_type": "in vivo", "text": "At 4, 8, and 3 days post ZIKV inoculation, C57BL/6J mice, Ifnar1^−/− mice, and pregnant C57BL/6J mice were sacrificed, respectively. Tissues and fetal mice were collected for testing ZIKV RNA by qPCR. ns, not significant, ∗p < 0.05, ∗∗p < 0.01, and ∗∗∗p < 0.001. Hc-CATH, a cathelicidin antimicrobial peptide identified from the sea snake Hydrophis cyanocinctus; PFU, plaque-forming unit; qPCR, quantitative PCR; ZIKV, Zika virus.\nC57BL/6J mice, Ifnar1^−/− mice, and pregnant C57BL/6J mice were sacrificed at 4, 8, and 3 days post ZIKV inoculation, respectively. Tissues and fetal mice were collected for testing ZIKV RNA level by qPCR."}, "TIM-1": {"system": "TIM-1", "assay": "TIM-1 level in Vero cells (Western blot)", "assay_type": "cell-based, Chlorocebus aethiops", "conditions": "6, 12, and 24 h post Hc-CATH addition", "experimental": "as §1, §2"}, "Vero, A549 or U251 cells": {"system": "Vero, A549 or U251 cells", "conditions": "1.25, 2.5, and 5 μM, 48 h, 37 °C, CCK-8", "quoted_text": "Vero, A549 or U251 cells (1×10^4 cells/well) were seeded\nin 96-well plates . Series of two -fold peptide dilutions in DMEM were added to each well to\ngive final concentrations from 0.78125 to 50 μM. After incubation at 37℃ for 48 h, cell\ncounting assay kit (CCK -8) was applied to determine the cytotoxicity. ***P < 0.001, ns, not"}}}
{"sequence": "KFFKRLLKSVRRAVKKFRKKPRLIGLSTLL [Hc-CATH]", "values": [{"measurement": "level of AXL in U251 cells", "setting": "AXL [1]", "value": "effectively decreased the level of AXL"}, {"measurement": "level of AXL in Vero cells", "setting": "AXL [2]; 1.25, 2.5, and 5 μM, 24 h, confirmed by immunofluorescence, relative to PBS", "value": "reduced the level of AXL"}, {"measurement": "level of AXL in Vero cells upon ZIKV infection", "setting": "AXL [2]; peptide 2 h, then ZIKV MOI = 1, 24 h post Hc-CATH addition", "value": "decreased the level of AXL"}, {"measurement": "anti-ZIKV efficacy in vivo compared with positive peptides", "setting": "ZIKV; C57BL/6J mice, prophylactic and therapeutic (Figs. 11E and 12E)", "value": "comparable with or even better than that of AC5 and LL-37"}, {"measurement": "ZIKV replication in C57BL/6J mice, prophylactic", "setting": "ZIKV; i.v. peptide 2 h before i.v. ZIKV 10^6 PFU/mouse, 4 days, tissue ZIKV RNA, qPCR", "value": "significantly decreased ZIKV replication"}, {"measurement": "ZIKV replication in Ifnar1−/− mice, prophylactic", "setting": "ZIKV; i.v. peptide 2 h before i.v. ZIKV 10^6 PFU/mouse, 8 days, tissue ZIKV RNA, qPCR", "value": "significantly decreased ZIKV replication"}, {"measurement": "ZIKV replication in fetal placenta and fetal mice, prophylactic", "setting": "ZIKV; pregnant C57BL/6J mice, i.v. peptide 2 h before i.v. ZIKV 10^6 PFU/mouse, 3 days, qPCR", "value": "significantly decreased ZIKV replication"}, {"measurement": "level of TIM-1 in Vero cells", "setting": "TIM-1", "value": "did not obviously influence"}, {"measurement": "cytotoxicity against mammalian cells", "setting": "Vero, A549 or U251 cells", "value": "did not have cytotoxicity"}]}
